Test results: patent US20100273831A1, “FLUORO ALKYL SUBSTITUTED BENZIMIDAZOLE CANNABINOID AGONISTS” (priority 2007, published 2010)

Tests used:
[1] = biological target: T1, human CB1 (hCB1) receptor (Homo sapiens, UniProt P21554); test: Inhibition of forskolin-activated cAMP production upon activation of human CB1 receptor (HTRF assay, CHO-K1 cells); type: cell-based; conditions: agonism; CHO-K1 cells stably transfected with hCB1; pEC50=-log(EC50); relative to CP55490; read-out: CB-1 pEC50 (converted)
T1 construct: expressed in transfected cells; host or cells: CHO-K1
Protocol: (§1) Functional activity of the test compounds was assessed by measuring their potency to inhibit forskolin-activated cAMP production upon activation of the human CB1 (hCB1) or human CB2 (hCB2) receptor through homogenous time resolved fluorescence (HTRF) assays.
(§2) CHO-K1 cells stably transfected with either hCB1 or hCB2 were grown up to 80-90% confluence in T175 Falcon flasks in DMEM/NUT MIX F-12 culture medium complemented with 2% Solution A (5.10^6 IU/1 penicillin G, 5 g/l streptomycin sulphate, 5.5 g/l pyruvate, 14.6 g/l L-glutamine, 1M NaOH) and 10% foetal calf serum. Before the experiments, medium was removed, cells were washed with PBS/EDTA (140 mM NaCl, 1 mM Na2-EDTA, 8 mM Na2HPO4.2H2O, 8.5 mM KH2PO4, 2.7 mM KCl, 21 mM glucose), resuspended in stimulation buffer (HBSS 1×, IBMX 1 mM, Hepes 5 mM, MgCl2 10 mM, BSA 0.1%, pH 7.4). Cells were diluted to a concentration of 8.10^5 cell/ml for hCB1 experiments and 10^6 cells/ml for hCB2 experiments. Assays were performed using the cAMP Dynamic HTRF kit (CIS bio international, France) according to the recommendations of the manufacturer.
For CB1, each well of a 96 flat bottom black polystyrene assay plate (Costar) was filled with 25 μl stimulation buffer containing 6 μM forskolin and either test compound (in 2% DMSO), 2% DMSO or 2 μM CP55490 (in 2% DMSO). Then, 25 μl of the diluted cells was added (20,000 cells/well). After 30 minutes incubation in dark at room temperature, 25 μl cAMP-XL665 and 25 μl anti-cAMP cryptate (both at a final dilution of 1/80) was added to the cells.
(§3) After equilibration of the reaction mixtures for 1 to 24 hours in dark at room temperature, fluorescence was measured at 665 nm and 620 nm using a Discovery microplate fluorescence counter (Perkin Elmer), and the signal ratio of 665 nm/620 nm was calculated. The signal ratios of the test compounds were expressed relative to the signal ratios of the DMSO control (maximal signal ratio, no inhibition of cAMP) and CP55490 or WIN55212-2 for hCB1 and hCB2, respectively (minimal signal ratio, maximal inhibition of cAMP). From the dose response curves generated for each test compound, the dose at which 50% of the maximal inhibition of cAMP level is observed (EC50, expressed in the Tables as pEC50=−log(EC50) values) and the level of inhibition reached with 10 μM of the test compound compared to CP55490 (for hCB1) or WIN55212-2 (for hCB2) was calculated.

[2] = biological target: T2, human CB2 (hCB2) receptor (Homo sapiens, UniProt P34972); test: Inhibition of forskolin-activated cAMP production upon activation of human CB2 receptor (HTRF assay, CHO-K1 cells); type: cell-based; conditions: agonism; CHO-K1 cells stably transfected with hCB2; pEC50=-log(EC50); relative to WIN55212-2; read-out: CB-2 pEC50 (converted)
T2 construct: expressed in transfected cells; host or cells: CHO-K1
Protocol: as §1, §2
For CB2, each well of a 384 flat bottom black polystyrene assay plate (Costar) was filled with 10 μl stimulation buffer containing 15 μM forskolin and either test compound (in 3% DMSO), 3% DMSO or 10 μM Win55212-2 (in 3% DMSO). Then, 20 μl of the diluted hCB2-CHO-K1 cells was added (20,000 cells/well). After 30 minutes incubation in dark at room temperature, 10 μl cAMP-XL665 and 10 μl anti-cAMP cryptate (both at a final dilution of 1/100) was added to the cells.
as §3

T1 sequence (P21554 whole entry): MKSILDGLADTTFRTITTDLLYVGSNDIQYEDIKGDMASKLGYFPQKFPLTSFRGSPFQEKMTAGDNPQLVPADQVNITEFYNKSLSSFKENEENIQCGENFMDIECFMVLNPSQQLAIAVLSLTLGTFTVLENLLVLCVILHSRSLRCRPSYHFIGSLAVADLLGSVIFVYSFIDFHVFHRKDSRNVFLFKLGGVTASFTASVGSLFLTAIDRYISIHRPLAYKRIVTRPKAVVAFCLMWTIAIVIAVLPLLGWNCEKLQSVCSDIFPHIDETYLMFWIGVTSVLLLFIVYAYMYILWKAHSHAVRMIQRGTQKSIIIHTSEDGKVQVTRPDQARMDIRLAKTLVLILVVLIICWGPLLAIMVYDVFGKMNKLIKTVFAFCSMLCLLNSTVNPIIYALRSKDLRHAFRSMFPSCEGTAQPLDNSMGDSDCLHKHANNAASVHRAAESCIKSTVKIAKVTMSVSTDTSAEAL
T2 sequence (P34972 whole entry): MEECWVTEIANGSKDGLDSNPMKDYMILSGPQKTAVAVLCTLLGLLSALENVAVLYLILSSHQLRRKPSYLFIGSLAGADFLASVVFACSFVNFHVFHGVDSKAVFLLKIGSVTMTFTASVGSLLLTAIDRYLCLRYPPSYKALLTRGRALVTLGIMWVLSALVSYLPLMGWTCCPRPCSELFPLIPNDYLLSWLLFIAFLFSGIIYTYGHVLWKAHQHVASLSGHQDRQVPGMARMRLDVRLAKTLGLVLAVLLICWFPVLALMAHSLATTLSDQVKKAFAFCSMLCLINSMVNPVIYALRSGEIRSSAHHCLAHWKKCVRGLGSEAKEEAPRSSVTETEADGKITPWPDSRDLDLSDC

SMILES	melting point	EC50 [1]	EC50 [2]
CC(C)(C)c1nc2cc(S(=O)(=O)Cc3ccc(C#N)cc3)ccc2n1CCCCC(F)(F)F	177.4 °C		
CC(C)(C)c1nc2cc(S(=O)(=O)C3CCNC3=O)ccc2n1CCCC(F)(F)F (stereo not drawn) [compound 16]		3980 nM	2.51 nM
CC(C)(C)c1nc2cc(S(=O)(=O)c3ccc(C(N)=O)cc3)ccc2n1CCCC(F)(F)F	207.8 °C		
CC(C)(C)c1nc2cc(S(=O)(=O)c3ccc(C#N)cc3)ccc2n1CCCC(F)(F)F [compound 6]		79.4 nM	0.398 nM
CC(C)(C)c1nc2cc(S(=O)(=O)CC3CC3)ccc2n1CCCCC(F)(F)F [compound 11]		31.6 nM	1.58 nM
CC(C)(C)c1nc2cc(S(=O)(=O)c3ccc(C#N)cc3)ccc2n1CCCCC(F)(F)F [compound 12]	180.1 °C	25.1 nM	1 nM
CC(C)(C)c1nc2cc(S(=O)(=O)Cc3ccc(C(N)=O)cc3)ccc2n1CCCCC(F)(F)F [compound 22]	222.8 °C	79.4 nM	2 nM
CC(C)(C)c1nc2cc(S(=O)(=O)c3ccncc3)ccc2n1CCCCC(F)(F)F [compound 13]	147.6 °C	200 nM	1.58 nM
CC(C)(C)c1nc2cc(Sc3ccc(C#N)cc3)ccc2n1CCCC(F)(F)F [compound 9]		25.1 nM	1 nM
CC(C)(C)c1nc2cc(S(=O)(=O)C(C)(C)c3ccc(C#N)cc3)ccc2n1CCCCC(F)(F)F [compound 20]		2000 nM	1.58 nM
CC(C)(C)c1nc2cc(S(=O)(=O)c3cn[nH]c3)ccc2n1CCCC(F)(F)F [compound 5]	220.8 °C	1260 nM	0.794 nM
CC(C)(C)c1nc2cc(S(=O)(=O)c3ccc(C#N)cc3)ccc2n1CCCC(F)(F)F	165.1 °C		
CC(C)(C)c1nc2cc(Sc3cn[nH]c3)ccc2n1CCCC(F)(F)F [compound 8]		> 10000 nM	0.631 nM
CC(C)(C)c1nc2cc(S(=O)(=O)C3CCNC3=O)ccc2n1CCCCC(F)(F)F (stereo not drawn) [compound 23]		1580 nM	5.01 nM
CC(C)(C)c1nc2cc(S(=O)(=O)C(C)(C)c3ccc(C#N)cc3)ccc2n1CCCCC(F)(F)F	187.6 °C		
COc1ccc(CSc2ccc3c(c2)nc(C(C)(C)C)n3CCCC(F)(F)F)cc1	143.2 °C		
CC(C)(C)c1nc2cc(S(=O)(=O)Cc3ccc(C#N)cc3)ccc2n1CCCCC(F)(F)F [compound 19]		> 10000 nM	2 nM
CC(C)(C)c1nc2cc(S(=O)(=O)c3ccncc3)ccc2n1CCCC(F)(F)F [compound 4]		2510 nM	0.398 nM
CC(C)(C)c1nc2cc([S+]([O-])c3ccc(C#N)cc3)ccc2n1CCCC(F)(F)F (stereo not drawn) [compound 7]		> 10000 nM	2.51 nM
CC(C)(C)c1nc2cc(S(=O)(=O)C(F)(F)c3ccc(C#N)cc3)ccc2n1CCCCC(F)(F)F [compound 21]		79.4 nM	3.16 nM
CC(C)(C)c1nc2cc(S(=O)(=O)C3CCNC3=O)ccc2n1CCCC(F)(F)F (stereo not drawn)	208.7 °C		
COc1ccc(CSc2ccc3c(c2)nc(C(C)(C)C)n3CCCCC(F)(F)F)cc1 [compound 10]		> 10000 nM	6.31 nM
CC(C)(C)c1nc2cc(S(=O)(=O)c3ccc(C(N)=O)cc3)ccc2n1CCCC(F)(F)F [compound 18]		2000 nM	3.16 nM
CC(C)(C)c1nc2cc(SCC3CC3)ccc2n1CCCCC(F)(F)F [compound 14]		10 nM	2 nM
CC(C)(C)c1nc2cc(S(=O)(=O)CC3CC3)ccc2n1CCCC(F)(F)F [compound 3]		316 nM	1.26 nM
COc1ccc(CSc2ccc3c(c2)nc(C(C)(C)C)n3CCCC(F)(F)F)cc1 [compound 1]		> 10000 nM	5.01 nM
CC(C)(C)c1nc2cc(S(=O)(=O)c3ccncc3)ccc2n1CCCC(F)(F)F	155.4 °C		
